Results taken from patent US9115092B2, “Substituted quinazoline and pyrido-pyrimidine derivatives” (Asana Biosciences, LLC, priority 2010, dated 2015).

Key:
[1] = target: T1, PI3Kα (wild-type), P110/P85α (Homo sapiens, UniProt P42336); assay: PI3 Kinase TR-FRET assay, PI3Kα (wild-type); format: biochemical
T1 construct: made in house; host or cells: SF9 insect cells
Summary of the method: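 TR-FRET read-out of PIP3 formation via biotin-PIP3 displacement (665/615 nm ratio) gave IC50 curves. Enzyme: 5 ng wild-type P110/P85α from Sf9 cells, 60 min RT with compound and PIP2 (MgCl2 40 mM, DTT 5 mM), then 30 min RT kinase reaction at 10 μM ATP and 10 μM PIP2.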

[2] = test system: pS6RP(S235/236), PC3 cells; assay: In-cell Western assay, pS6RP(S235/236) in PC3 cells; format: cell-based, human; details: Homo sapiens, PC-3, In-cell Western
Summary of the method: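 Overnight-seeded PC3 cells were treated 2 h with serially diluted compound, then fixed and immunostained with phospho-specific primary antibodies and Eu-labelled secondary. Time-resolved Eu signal read at 615 nm (ex 340 nm), normalised by Hoechst 33258 staining (ex 355/em 460 nm); IC50 from sigmoidal dose-response fit.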

PC3 cells = assay: XTT assay for cell viability, PC3 cells; format: cell-based, human; details: Homo sapiens, PC-3, cell viability
Summary of the method: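 PC3 cells seeded at 1000 cells/well, grown 24 h, then exposed to serial dilutions of compound for 96 h. Viability read by XTT dye at 37° C, absorbance 465 nm. EC50 from sigmoidal dose-response fit.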

mTOR kinase = target: T2, mTOR kinase (Homo sapiens, UniProt P42345); assay: mTOR kinase TR-FRET assay; format: biochemical; details: read-out: mTO R
T2 construct: purchased Millipore, USA
Summary of the method: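 TR-FRET read-out (340 nm excitation, 615/665 nm emission) of Thr389 phosphorylation of a ULight-labeled p70 S6K peptide (50 nM) by mTOR, 20 μM ATP, 60 min room temperature after 60 min compound preincubation. Buffer HEPES pH 7.5 with MnCl2, EGTA; IC50 by sigmoidal dose-response.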

T1 sequence (P42336 whole entry): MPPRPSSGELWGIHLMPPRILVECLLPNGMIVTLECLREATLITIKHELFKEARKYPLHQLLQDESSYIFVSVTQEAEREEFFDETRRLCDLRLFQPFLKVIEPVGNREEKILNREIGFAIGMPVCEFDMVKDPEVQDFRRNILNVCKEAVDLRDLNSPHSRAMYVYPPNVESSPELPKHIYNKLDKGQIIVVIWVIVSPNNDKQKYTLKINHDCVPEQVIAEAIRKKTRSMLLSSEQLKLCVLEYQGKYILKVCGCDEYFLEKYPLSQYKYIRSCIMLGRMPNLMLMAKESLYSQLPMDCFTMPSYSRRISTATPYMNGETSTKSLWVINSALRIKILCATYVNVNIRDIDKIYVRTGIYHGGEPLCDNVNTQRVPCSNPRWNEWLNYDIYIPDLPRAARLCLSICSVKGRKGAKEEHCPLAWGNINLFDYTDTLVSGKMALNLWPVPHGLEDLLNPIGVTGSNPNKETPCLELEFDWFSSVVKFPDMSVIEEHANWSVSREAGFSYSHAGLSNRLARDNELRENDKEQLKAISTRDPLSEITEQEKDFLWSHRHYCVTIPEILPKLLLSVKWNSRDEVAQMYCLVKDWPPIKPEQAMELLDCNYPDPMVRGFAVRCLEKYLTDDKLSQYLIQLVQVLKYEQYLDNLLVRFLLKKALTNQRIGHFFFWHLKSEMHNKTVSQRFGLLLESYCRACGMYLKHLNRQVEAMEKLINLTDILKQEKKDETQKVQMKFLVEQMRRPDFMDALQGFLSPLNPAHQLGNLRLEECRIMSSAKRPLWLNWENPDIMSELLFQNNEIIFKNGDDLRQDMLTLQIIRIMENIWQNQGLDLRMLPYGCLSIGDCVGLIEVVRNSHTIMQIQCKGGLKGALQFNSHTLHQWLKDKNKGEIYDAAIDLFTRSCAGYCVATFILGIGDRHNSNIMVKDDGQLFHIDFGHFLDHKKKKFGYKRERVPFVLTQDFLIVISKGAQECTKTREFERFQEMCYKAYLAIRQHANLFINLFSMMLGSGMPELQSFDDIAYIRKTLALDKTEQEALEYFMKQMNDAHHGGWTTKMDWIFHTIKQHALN
T1 sequence (P27986 whole entry partner): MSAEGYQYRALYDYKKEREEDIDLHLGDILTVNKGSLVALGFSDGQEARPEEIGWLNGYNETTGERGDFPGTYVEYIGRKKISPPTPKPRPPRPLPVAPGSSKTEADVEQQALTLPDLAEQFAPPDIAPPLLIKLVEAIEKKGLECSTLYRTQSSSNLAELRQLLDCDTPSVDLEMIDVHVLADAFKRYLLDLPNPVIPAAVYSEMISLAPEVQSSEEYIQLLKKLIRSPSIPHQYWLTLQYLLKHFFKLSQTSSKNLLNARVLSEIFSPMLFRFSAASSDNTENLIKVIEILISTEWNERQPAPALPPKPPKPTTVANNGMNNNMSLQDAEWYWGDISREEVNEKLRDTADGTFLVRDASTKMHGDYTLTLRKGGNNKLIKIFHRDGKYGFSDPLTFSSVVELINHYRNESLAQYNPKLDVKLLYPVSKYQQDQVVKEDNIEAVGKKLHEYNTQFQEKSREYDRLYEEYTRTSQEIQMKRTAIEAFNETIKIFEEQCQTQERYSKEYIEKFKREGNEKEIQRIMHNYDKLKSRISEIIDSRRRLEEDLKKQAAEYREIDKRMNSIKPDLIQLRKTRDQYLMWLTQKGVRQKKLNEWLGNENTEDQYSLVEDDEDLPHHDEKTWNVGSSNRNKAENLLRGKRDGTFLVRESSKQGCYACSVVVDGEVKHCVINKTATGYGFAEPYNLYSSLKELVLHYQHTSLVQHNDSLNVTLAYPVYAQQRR

Row | Structure (SMILES) | IC50 [1] [nM] | IC50 [2] [nM] | IC50 (PC3 cells) [nM] | IC50 (mTOR kinase) [nM]
1 | Cc1ccc(-c2ccc3c(N4CCOCC4)nc(-c4ccc(NC(=O)Nc5ccc(C(=O)N(C)C)nc5)nc4)nc3c2)o1 [Example 129, N,N-dimethyl-5-(3-(5-(7-(5-methylfuran-2-yl)-4-morpholino-quinazolin-2-yl)pyridin-2-yl)ureido)picolinamide] | < 50 | < 100 | 501 to 5000 | 50 to 200
2 | CN(C)C(=O)c1ccc(NC(=O)Nc2ccc(-c3nc(N4CCOCC4)c4ccc(-c5cccc(S(C)(=O)=O)c5)cc4n3)cc2F)cn1 [Example 130, 5-(3-(2-fluoro-4-(7-(3-(methylsulfonyl)phenyl)-4-morpholino-quinazolin-2-yl)phenyl)ureido)-N,N-dimethylpicolinamide] | < 50 | 201 to 10000 | 201 to 10000 | < 50
3 | Cc1noc(C)c1-c1ccc2c(N3CCOCC3)nc(-c3ccc(NC(=O)Nc4ccc(C(=O)N(C)C)cc4)c(F)c3)nc2c1 [Example 131, 4-(3-(4-(7-(3,5-dimethylisoxazol-4-yl)-4-morpholino-quinazolin-2-yl)-2-fluorophenyl)ureido)-N,N-dimethyl-benzamide] | < 50 | 201 to 10000 | 201 to 10000 | 50 to 200
4 | CC1CN(c2nc(-c3ccc(NC(=O)Nc4ccc(C(=O)N(C)C)cc4)c(F)c3)nc3cc(-c4cncnc4)ccc23)CC(C)O1 (stereo not shown) [Example 132, 4-(3-(4-(4-(2,6-dimethylmorpholino)-7-(pyrimidin-5-yl)quinazolin-2-yl)-2-fluorophenyl)ureido)-N,N-dimethyl-benzamide] | 201 to 10000 | 201 to 10000 | 201 to 10000 | 50 to 200
5 | CN(C)C(=O)c1ccc(NC(=O)Nc2ccc(-c3nc(N4CCOCC4)c4ncc(-c5cnn(C)c5)cc4n3)cc2)c(F)c1 [Example 134, 3-fluoro-N,N-dimethyl-4-(3-(4-(7-(1-methyl-1H-pyrazol-4-yl)-4-morpholino-pyrido[3,2-d]pyrimidin-2-yl)phenyl)ureido)-benzamide] | < 50 | 201 to 10000 | 201 to 10000 | < 50
6 | CN(C)C(=O)c1ccc(NC(=O)Nc2ccc(-c3nc(N4CCOCC4)c4ccc(-c5ccncc5)cc4n3)cc2F)cc1 [Example 137, 4-(3-(2-fluoro-4-(4-morpholino-7-(pyridin-4-yl)quinazolin-2-yl)phenyl)ureido)-N,N-dimethyl-benzamide] | 50 to 200 | 201 to 10000 | 201 to 10000 | 50 to 200
7 | CN(C)C(=O)c1ccc(NC(=O)Nc2ccc(-c3nc(N4CCOCC4)c4ccccc4n3)cc2)cc1 [Example 179, N,N-dimethyl-4-(3-(4-(4-morpholino-quinazolin-2-yl)phenyl)ureido)-benzamide] | 50 to 200 | 201 to 10000 | 201 to 10000 | < 50
8 | COc1ccc2c(N3CCOCC3)nc(-c3ccc(NC(=O)Nc4ccc(C(=O)N(C)C)cc4)cc3)nc2c1 [Example 180, 4-(3-(4-(7-methoxy-4-morpholino-quinazolin-2-yl)phenyl)ureido)-N,N-dimethyl-benzamide] | < 50 | 201 to 10000 | 201 to 10000 | < 50
9 | COc1cc2nc(-c3ccc(NC(=O)Nc4ccc(C(=O)N(C)C)cc4)cc3)nc(N3CCOCC3)c2cc1OC [Example 181, 4-(3-(4-(6,7-dimethoxy-4-morpholino-quinazolin-2-yl)phenyl)ureido)-N,N-dimethyl-benzamide] | 50 to 200 | 201 to 10000 | 201 to 10000 | < 50
10 | CN(C)[C@@H]1CCN(C(=O)c2ccc(NC(=O)Nc3ccc(-c4nc(N5CCOCC5)c5ncc(-c6cnn(C)c6)cc5n4)cc3)cc2)C1 [Example 184, (R)-1-(4-(3-(dimethylamino)pyrrolidine-1-carbonyl)phenyl)-3-(4-(7-(1-methyl-1H-pyrazol-4-yl)-4-morpholino-pyrido[3,2-d]pyrimidin-2-yl)phenyl)urea] | < 50 | 201 to 10000 | 201 to 10000 | < 50
11 | CN(C)C1CCN(C(=O)c2ccc(NC(=O)Nc3ccc(-c4nc(N5CCOCC5)c5ncc(-c6cnn(C)c6)cc5n4)cc3)cc2)CC1 [Example 186, 1-(4-(4-(dimethylamino)piperidine-1-carbonyl)phenyl)-3-(4-(7-(1-methyl-1H-pyrazol-4-yl)-4-morpholino-pyrido[3,2-d]pyrimidin-2-yl)phenyl)urea] | < 50 | 201 to 10000 | 201 to 10000 | < 50
12 | CN(C)[C@@H]1CCN(C(=O)c2ccc(NC(=O)Nc3ccc(-c4nc(N5CCOCC5)c5ccc(-c6cncnc6)cc5n4)cc3)cc2)C1 [Example 187, (R)-1-(4-(3-(dimethylamino)pyrrolidine-1-carbonyl)phenyl)-3-(4-(4-morpholino-7-(pyrimidin-5-yl)quinazolin-2-yl)phenyl)urea] | < 50 | 201 to 10000 | 201 to 10000 | < 50
13 | O=C(Nc1ccc(C(=O)N2CCC(O)C2)cc1)Nc1ccc(-c2nc(N3CCOCC3)c3ccc(-c4cncnc4)cc3n2)cc1 (stereo not shown) [Example 189, 1-(4-(3-hydroxypyrrolidine-1-carbonyl)phenyl)-3-(4-(4-morpholino-7-(pyrimidin-5-yl)quinazolin-2-yl)phenyl)urea] | 201 to 10000 | 201 to 10000 | 201 to 10000 | < 50
14 | CN(C)Cc1ccc(-c2ccc3c(N4CCOCC4)nc(-c4ccc(NC(=O)Nc5ccc(C(=O)N(C)C)cc5)cc4)nc3c2)o1 [Example 190, 4-(3-(4-(7-(5-((dimethylamino)methyl)furan-2-yl)-4-morpholino-quinazolin-2-yl)phenyl)ureido)-N,N-dimethyl-benzamide] | 50 to 200 | 201 to 10000 | 201 to 10000 | < 50
15 | Cc1ccc(-c2ccc3c(N4CCOCC4)nc(-c4ccc(NC(=O)Nc5ccc(C(=O)N6CCC(N(C)C)CC6)cc5)cc4)nc3c2)o1 [Example 191, 1-(4-(4-(dimethylamino)piperidine-1-carbonyl)phenyl)-3-(4-(7-(5-methylfuran-2-yl)-4-morpholino-quinazolin-2-yl)phenyl)urea] | 201 to 10000 | 201 to 10000 | 201 to 10000 | 50 to 200
16 | Cc1ccncc1-c1ccc2c(N3CCOCC3)nc(-c3ccc(NC(=O)Nc4ccc(C(=O)N5CCC(N(C)C)CC5)cc4)cc3)nc2c1 [Example 193, 1-(4-(4-(dimethylamino)piperidine-1-carbonyl)phenyl)-3-(4-(7-(4-methylpyridin-3-yl)-4-morpholino-quinazolin-2-yl)phenyl)urea] | < 50 | 201 to 10000 | 201 to 10000 | < 50
17 | N[C@H]1CCN(C(=O)c2ccc(NC(=O)Nc3ccc(-c4nc(N5CCOCC5)c5ccc(-c6cncnc6)cc5n4)cc3)cc2)C1 [Example 194, (S)-1-(4-(3-aminopyrrolidine-1-carbonyl)phenyl)-3-(4-(4-morpholino-7-(pyrimidin-5-yl)quinazolin-2-yl)phenyl)urea] | < 50 | 201 to 10000 | 201 to 10000 | < 50
18 | N[C@@H]1CCN(C(=O)c2ccc(NC(=O)Nc3ccc(-c4nc(N5CCOCC5)c5ccc(-c6cncnc6)cc5n4)cc3)cc2)C1 [Example 197, (R)-1-(4-(3-aminopyrrolidine-1-carbonyl)phenyl)-3-(4-(4-morpholino-7-(pyrimidin-5-yl)quinazolin-2-yl)phenyl)urea] | < 50 | 201 to 10000 | 201 to 10000 | < 50
19 | Cc1ccc(-c2ccc3c(N4CCOCC4)nc(-c4ccc(NC(=O)Nc5ccc(C(=O)NCCN(C)C)cc5)cc4)nc3c2)o1 [Example 201, N-(2-(dimethylamino)ethyl)-4-(3-(4-(7-(5-methylfuran-2-yl)-4-morpholino-quinazolin-2-yl)phenyl)ureido)-benzamide] | 50 to 200 | 501 to 5000 | 501 to 5000 | < 50
20 | Cn1cc(-c2cnc3c(N4CCOCC4)nc(-c4ccc(NC(=O)Nc5ccc(C(N)=O)cc5)cc4)nc3c2)cn1 [Example 202, 4-(3-(4-(7-(1-methyl-1H-pyrazol-4-yl)-4-morpholino-pyrido[3,2-d]pyrimidin-2-yl)phenyl)ureido)-benzamide] | < 50 | 201 to 10000 | 201 to 10000 | < 50
21 | CN(C)C(=O)c1ccc(NC(=O)Nc2ccc(-c3nc(N4CCOCC4)c4ccc(-c5ccc(CO)o5)cc4n3)cc2F)cc1 [Example 203, 4-(3-(2-fluoro-4-(7-(5-(hydroxymethyl)furan-2-yl)-4-morpholino-quinazolin-2-yl)phenyl)ureido)-N,N-dimethyl-benzamide] | < 50 | 201 to 10000 | 201 to 10000 | < 50
22 | Cc1ccc(-c2ccc3c(N4CCOCC4)nc(-c4ccc(NC(=O)Nc5ccc(C(=O)N6CCC(O)C6)cc5)cc4)nc3c2)o1 (stereo not shown) [Example 204, 1-(4-(3-hydroxypyrrolidine-1-carbonyl)phenyl)-3-(4-(7-(5-methylfuran-2-yl)-4-morpholino-quinazolin-2-yl)phenyl)urea] | < 50 | < 100 | < 100 | < 50
